Results from patent publication US20140274683A1, “COMPOSITIONS AND METHODS FOR REPELLING POLLINATING INSECTS AND PROTECTING PLANTS AND CROPS AGAINST INSECTS AND/OR NEMATODES” (Bayer CropScience LP, priority 2013, published 2014).

What was measured:
Honeybees = assay: Honeybee repulsion experiment at feeding stations with 50% sucrose; type: in vivo; conditions: 2% by weight in combination with 50% sucrose, feeding station
Procedure: FIG. 1 describes the feeding station arrangement (A and B) for the honeybee repulsion experiments described herein. As set forth in FIG. 1, panel (A) sets forth the bee cage positions on the left portion of panel (A) with the randomized feeding station positions on the right portion of panel (A). Panel (B) sets forth an alignment of the randomized feeding station positions with a distance of two meters between feeding stations. A total of eight feeding stations were evaluated at a ten meter distance in front of the respective bee hives. The feeding stations were placed two meters apart from one another.
Honeybees were trained to deep feeders (eight positions), each containing a 50% sucrose solution for one day. After the honeybees were trained to each feeder, the 50% sucrose feeder at randomized positions 1-8 was replaced with a shallow feeder containing a combination of repelling compounds and a 50% sucrose solution according to Table 5. In accordance with FIGS. 5 and 6, 2% by weight of Camphor oil (T4), Ajowan oil (T5), Camphor powder (T6), Rosemary oil (T7), and 2-Decanone (T8) in combination with a 50% sucrose treatment were added to feeders on day two.
Table 5 describes active agents evaluated for bee repulsion and their randomized feeding station positions. As described in Table 5, T1 (control), T2 (control), T3 (control), T4 (Camphor oil), T5 (Ajowan oil), T6 (Camphor powder), T7 (Rosemary oil), and T8 (2-Decanone).
FIG. 5 evaluates the number of bees visiting a respective feed station over a time interval. FIG. 6 sets forth the mean number of honeybees visiting feeding station over a period of four hours.

[1] = Stability test of Poncho combined with Eugenol, clothianidin content by HPLC; type: physicochemical; conditions: up to 54° C. for seven days
Procedure: Table 6 describes a stability test with a combination of Eugenol and Poncho evaluated at room temperature, 40° C., and 54° C. at zero time, 3 days, and 7 days as confirmed by high performance liquid chromatography (HPLC).

[2] = Stability test of Poncho 600 combined with α-terpineol, clothianidin content by HPLC; type: physicochemical; conditions: combined with alpha-terpineol, up to 54° C. for eight days
Procedure: Table 7 describes a stability test with a combination of α-terpineol and Poncho 600 evaluated at room temperature, 40° C., and 54° C. at zero time, 2 days, and 8 days as confirmed by HPLC.

In the case of `CCCCCCCCC(C)=O` [Compound 2-Decanone, 2-decanone], the “Honeybee repellency over the 4 hour assessment period” value (Honeybees; 4 hour assessment period) is reported as “highly repellent”, the “Honeybee repellency at 24 hours” value (Honeybees) is reported as “exhibited repellency” and the “Honeybee repellency at 24 hours” value (Honeybees; listed as 2-decanone) is reported as “still repellent”.

In the case of `CN/C(=N\[N+](=O)[O-])NCc1cnc(Cl)s1` [clothianidin], the “Chemical stability of clothianidin content in Poncho” value [1] is reported as “exhibited chemical stability” and the “Chemical stability of clothianidin content in Poncho” value [2] is reported as “exhibited chemical stability”.
